Assay results from patent US11214594B2, “Antimicrobial peptide having synergistic antibacterial effect with antibiotics on multidrug resistant bacteria, and use thereof” (priority 2016, dated 2022).
In brackets after ≈: the same amount, converted by molar mass. Like-named read-outs stand apart in the source and are kept apart here. Where a SMILES comes first, the peptide text is derived from it.

Columns and labels:
MDREC 1238 = type: cell-based, Escherichia coli
Protocol: (§1) For the antibacterial activity, a minimal inhibitory concentration (MIC) of a peptide in which fungus bodies were not split in an MH medium with sufficient nutrients was measured.
(§2) Specifically, the strains described in the following [Table 2] were purchased and diluted with an MH medium such that the number of bacteria was 2×10^6 colony-forming units (CFUs), 100 μl of each of the diluted strains was aliquoted into a 96-well microtiter plate, and then 100 μl of a peptide solution diluted with the MH medium (solution diluted stepwise at 2: 1) was added to each well.

P. aeruginosa = test: microbe, parasite or virus in culture; type: cell-based, Pseudomonas aeruginosa
Protocol: as §1, §2

MDRPA 2002 = type: cell-based, Pseudomonas aeruginosa
Protocol: as §1, §2

MDRPA 2003 = type: cell-based, Pseudomonas aeruginosa
Protocol: as §1, §2

A. baumannii = test: microbe, parasite or virus in culture; type: cell-based, Acinetobacter baumannii
Protocol: as §1, §2

MDRAB 12035 [1] = test: microbe, parasite or virus in culture; type: cell-based, Acinetobacter baumannii
Protocol: as §1, §2

MDRAB 12036 = type: cell-based, Acinetobacter baumannii
Protocol: as §1, §2

S. typhimurium = test: microbe, parasite or virus in culture; type: cell-based, Salmonella typhimurium
Protocol: as §1, §2

MDRST 8007 = test: Minimal inhibitory concentration (MIC), single agent; type: cell-based, Salmonella typhimurium; conditions: agent alone
Protocol: as §1, §2

B. subtilis = test: microbe, parasite or virus in culture; type: cell-based, Bacillus subtilis
Protocol: as §1, §2

S. epidermidis = test: microbe, parasite or virus in culture; type: cell-based, Staphylococcus epidermidis
Protocol: as §1, §2

S. aureus = test: microbe, parasite or virus in culture; type: cell-based, Staphylococcus aureus
Protocol: as §1, §2

MRSA 3114 = type: cell-based, Staphylococcus aureus; conditions: 3114
Protocol: as §1, §2

MRSA 3126 = type: cell-based, Staphylococcus aureus; conditions: 3126
Protocol: as §1, §2

MDREC 1229 [2] = test: MIC of antibiotic during combined treatment with antimicrobial peptide; type: cell-based, Escherichia coli
Protocol: (§3) Specifically, the strains described in [Table 2] were prepared and diluted with an MH medium such that the number of bacteria was 2×10^6 colony-forming units (CFUs) per 1 ml, 100 μl of the diluted strains was each aliquoted into a 96-well microtiter plate, and then 50 μl of a peptide solution diluted with the MH medium from the MIC value (solution diluted stepwise at 2: 1) was added to each well. Thereafter, the MIC value of each mixed solution was determined by diluting the antibiotic solution with the MH medium, adding 50 μl of the diluted solution to each well, and performing an experiment even under a reversed condition.

MDRAB 12035 [3] = test: as above; type: cell-based, Acinetobacter baumannii
Protocol: as §3

E. coli = type: cell-based, Escherichia coli; conditions: E. coli
Protocol: as §3

MDREC 1229 [4] = type: cell-based, Escherichia coli
Protocol: as §3

MDRAB 12035 [5] = test: MIC of antimicrobial peptide during combined treatment with antibiotic; type: cell-based, Acinetobacter baumannii
Protocol: as §3

[6] = peptide treatment concentration 1 μg/ml
[7] = peptide treatment concentration 2 μg/ml
[8] = peptide treatment concentration 4 μg/ml
[9] = peptide treatment concentration 6 μg/ml
[10] = peptide treatment concentration 8 μg/ml
[11] = peptide treatment concentration 16 μg/ml
[12] = peptide treatment concentration 32 μg/ml
[13] = peptide treatment concentration 64 μg/ml
[14] = linezolid 64 μg/ml (Conc./MIC 1/8)
[15] = linezolid 512 μg/ml (Conc./MIC 1)
[16] = vancomycin 512 μg/ml (Conc./MIC 1/2)
[17] = vancomycin 1024 μg/ml (Conc./MIC 1)

SMILES: CC[C@H](C)[C@H](NC(=O)[C@H](CCCCN)NC(=O)[C@H](Cc1c[nH]c2ccccc12)NC(=O)[C@@H](N)CCCNC(=N)N)C(=O)N[C@@H](Cc1ccccc1)C(=O)N[C@@H](CCCCN)C(=O)N[C@@H](CCCCN)C(=O)N[C@H](C(=O)N1CCC[C@H]1C(=O)N[C@@H](CCCCN)C(=O)N[C@@H](CC(C)C)C(=O)N[C@@H](CC(C)C)C(=O)N[C@@H](Cc1c[nH]cn1)C(=O)N[C@@H](CCC(=O)O)C(=O)N[C@@H](Cc1ccccc1)C(=O)N[C@@H](CCCCN)C(=O)N[C@@H](CCCCN)C(=O)N[C@@H](Cc1ccccc1)C(N)=O)[C@@H](C)CC [PapMA-12, RWK IFK KIP KLL HEF KKF-NH2] (H-RWKIFKKIPKLLHEFKKF-NH2; N-terminus assumed)
- Minimal inhibitory concentration MIC (MDREC 1238): 16 µg/mL (≈ 6.71 µM)
- Minimal inhibitory concentration MIC (P. aeruginosa): 64 µg/mL (≈ 26.8 µM)
- Minimal inhibitory concentration MIC (MDRPA 2002): 64 µg/mL (≈ 26.8 µM)
- Minimal inhibitory concentration MIC (MDRPA 2003): 64 µg/mL (≈ 26.8 µM)
- Minimal inhibitory concentration MIC (A. baumannii): 8 µg/mL (≈ 3.35 µM)
- Antibacterial activity relative to PapMA-1 (A. baumannii; A. baumannii and S. typhimurium): at least twice as high
- Minimal inhibitory concentration MIC (MDRAB 12035 [1]): 8 µg/mL (≈ 3.35 µM)
- Peptide MIC, peptide alone (MDRAB 12035 [1]): 8 µg/mL
- Minimal inhibitory concentration MIC (MDRAB 12036): 16 µg/mL (≈ 6.71 µM)
- Minimal inhibitory concentration MIC (S. typhimurium): 16 µg/mL (≈ 6.71 µM)
- Minimal inhibitory concentration MIC (MDRST 8007): 16 µg/mL (≈ 6.71 µM)
- Minimal inhibitory concentration MIC (B. subtilis): >128 µg/mL
- Minimal inhibitory concentration MIC (S. epidermidis): >128 µg/mL
- Minimal inhibitory concentration MIC (S. aureus): >128 µg/mL
- Minimal inhibitory concentration MIC (MRSA 3114): >128 µg/mL
- Minimal inhibitory concentration MIC (MRSA 3126): >128 µg/mL
- Antibiotic MIC, Erythromycin (MDREC 1229 [2]; [6]): 128 µg/mL
- Antibiotic MIC, Linezolid (MDREC 1229 [2]; [6]): >128 µg/mL
- Antibiotic MIC, Vancomycin (MDREC 1229 [2]; [6]): >128 µg/mL
- Antibiotic MIC, Erythromycin (MDREC 1229 [2]; [7]): 32 µg/mL
- Antibiotic MIC, Linezolid (MDREC 1229 [2]; [7]): 128 µg/mL
- Antibiotic MIC, Vancomycin (MDREC 1229 [2]; [7]): >128 µg/mL
- Antibiotic MIC, Erythromycin (MDREC 1229 [2]; [8]): 8 µg/mL
- Antibiotic MIC, Linezolid (MDREC 1229 [2]; [8]): 32 µg/mL
- Antibiotic MIC, Vancomycin (MDREC 1229 [2]; [8]): 128 µg/mL
- Antibiotic MIC, Erythromycin (MDREC 1229 [2]; [9]): 4 µg/mL
- Antibiotic MIC, Linezolid (MDREC 1229 [2]; [9]): 16 µg/mL
- Antibiotic MIC, Vancomycin (MDREC 1229 [2]; [9]): 32 µg/mL
- Antibiotic MIC, Erythromycin (MDREC 1229 [2]; [10]): 1 µg/mL
- Antibiotic MIC, Linezolid (MDREC 1229 [2]; [10]): 16 µg/mL
- Antibiotic MIC, Vancomycin (MDREC 1229 [2]; [10]): 8 µg/mL
- Antibiotic MIC, Erythromycin (MDREC 1229 [2]; [11]): 0 µg/mL
- Antibiotic MIC, Linezolid (MDREC 1229 [2]; [11]): 0 µg/mL
- Antibiotic MIC, Vancomycin (MDREC 1229 [2]; [11]): 0 µg/mL
- Antibiotic MIC, Erythromycin (MDREC 1229 [2]; [12]): 0 µg/mL
- Antibiotic MIC, Linezolid (MDREC 1229 [2]; [12]): 0 µg/mL
- Antibiotic MIC, Vancomycin (MDREC 1229 [2]; [12]): 0 µg/mL
- Antibiotic MIC, Erythromycin (MDREC 1229 [2]; [13]): 0 µg/mL
- Antibiotic MIC, Linezolid (MDREC 1229 [2]; [13]): 0 µg/mL
- Antibiotic MIC, Vancomycin (MDREC 1229 [2]; [13]): 0 µg/mL
- Erythromycin MIC during combined treatment with peptide (MDRAB 12035 [3]; [6]): 16 µg/mL
- Linezolid MIC during combined treatment with peptide (MDRAB 12035 [3]; [6]): 128 µg/mL
- Vancomycin MIC during combined treatment with peptide (MDRAB 12035 [3]; [6]): 128 µg/mL
- Erythromycin MIC during combined treatment with peptide (MDRAB 12035 [3]; [7]): 8 µg/mL
- Linezolid MIC during combined treatment with peptide (MDRAB 12035 [3]; [7]): 64 µg/mL
- Vancomycin MIC during combined treatment with peptide (MDRAB 12035 [3]; [7]): 64 µg/mL
- Erythromycin MIC during combined treatment with peptide (MDRAB 12035 [3]; [8]): 2 µg/mL
- Linezolid MIC during combined treatment with peptide (MDRAB 12035 [3]; [8]): 16 µg/mL
- Vancomycin MIC during combined treatment with peptide (MDRAB 12035 [3]; [8]): 16 µg/mL
- Erythromycin MIC during combined treatment with peptide (MDRAB 12035 [3]; [9]): 1 µg/mL
- Linezolid MIC during combined treatment with peptide (MDRAB 12035 [3]; [9]): 8 µg/mL
- Vancomycin MIC during combined treatment with peptide (MDRAB 12035 [3]; [9]): 4 µg/mL
- Erythromycin MIC during combined treatment with peptide (MDRAB 12035 [3]; [10]): 0 µg/mL
- Linezolid MIC during combined treatment with peptide (MDRAB 12035 [3]; [10]): 0 µg/mL
- Vancomycin MIC during combined treatment with peptide (MDRAB 12035 [3]; [10]): 0 µg/mL
- Erythromycin MIC during combined treatment with peptide (MDRAB 12035 [3]; [11]): 0 µg/mL
- Linezolid MIC during combined treatment with peptide (MDRAB 12035 [3]; [11]): 0 µg/mL
- Vancomycin MIC during combined treatment with peptide (MDRAB 12035 [3]; [11]): 0 µg/mL
- Erythromycin MIC during combined treatment with peptide (MDRAB 12035 [3]; [12]): 0 µg/mL
- Linezolid MIC during combined treatment with peptide (MDRAB 12035 [3]; [12]): 0 µg/mL
- Vancomycin MIC during combined treatment with peptide (MDRAB 12035 [3]; [12]): 0 µg/mL
- Erythromycin MIC during combined treatment with peptide (MDRAB 12035 [3]; [13]): 0 µg/mL
- Linezolid MIC during combined treatment with peptide (MDRAB 12035 [3]; [13]): 0 µg/mL
- Vancomycin MIC during combined treatment with peptide (MDRAB 12035 [3]; [13]): 0 µg/mL
- Peptide MIC (E. coli; with Erythromycin […] (Conc./MIC 1)): 0 µg/mL
- Peptide MIC (E. coli; with Linezolid […] (Conc./MIC 1)): 0 µg/mL
- Peptide MIC (E. coli; with Vancomycin 1024 μg/ml (Conc./MIC 1)): 0 µg/mL
- Peptide MIC during treatment with antibiotic (MDREC 1229 [4]; erythromycin 32 μg/ml (Conc./MIC 1/8)): 2 µg/mL
- Peptide MIC during treatment with antibiotic (MDREC 1229 [4]; erythromycin 64 μg/ml (Conc./MIC 1/4)): 2 µg/mL
- Peptide MIC during treatment with antibiotic (MDREC 1229 [4]; erythromycin […] (Conc./MIC 1)): 0 µg/mL
- Peptide MIC during treatment with antibiotic (MDREC 1229 [4]; erythromycin […] (Conc./MIC 1/2)): 1 µg/mL
- Peptide MIC during treatment with antibiotic (MDREC 1229 [4]; [14]): 4 µg/mL
- Peptide MIC during treatment with antibiotic (MDREC 1229 [4]; [15]): 0 µg/mL
- Peptide MIC during treatment with antibiotic (MDREC 1229 [4]; linezolid […] (Conc./MIC 1/2)): 1 µg/mL
- Peptide MIC during treatment with antibiotic (MDREC 1229 [4]; linezolid […] (Conc./MIC 1/4)): 2 µg/mL
- Peptide MIC during treatment with antibiotic (MDREC 1229 [4]; [16]): 2 µg/mL
- Peptide MIC during treatment with antibiotic (MDREC 1229 [4]; [17]): 1 µg/mL
- Peptide MIC during treatment with antibiotic (MDREC 1229 [4]; vancomycin […] (Conc./MIC 1/4)): 4 µg/mL
- Peptide MIC during treatment with antibiotic (MDREC 1229 [4]; vancomycin […] (Conc./MIC 1/8)): 4 µg/mL
- Peptide MIC during treatment with erythromycin (MDRAB 12035 [5]; erythromycin 4 μg/ml (Conc./MIC 1/8)): 4 µg/mL
- Peptide MIC during treatment with erythromycin (MDRAB 12035 [5]; erythromycin 8 μg/ml (Conc./MIC 1/4)): 2 µg/mL
- Peptide MIC during treatment with erythromycin (MDRAB 12035 [5]; erythromycin 16 μg/ml (Conc./MIC 1/2)): 1 µg/mL
- Peptide MIC during treatment with erythromycin (MDRAB 12035 [5]; erythromycin 32 μg/ml (Conc./MIC 1)): 0 µg/mL
- Peptide MIC during treatment with linezolid (MDRAB 12035 [5]; [14]): 2 µg/mL
- Peptide MIC during treatment with linezolid (MDRAB 12035 [5]; [15]): 0 µg/mL
- Peptide MIC during treatment with linezolid (MDRAB 12035 [5]; linezolid […] (Conc./MIC 1/2)): 1 µg/mL
- Peptide MIC during treatment with linezolid (MDRAB 12035 [5]; linezolid […] (Conc./MIC 1/4)): 1 µg/mL
- Peptide MIC during treatment with vancomycin (MDRAB 12035 [5]; [16]): 2 µg/mL
- Peptide MIC during treatment with vancomycin (MDRAB 12035 [5]; [17]): 1 µg/mL
- Peptide MIC during treatment with vancomycin (MDRAB 12035 [5]; vancomycin […] (Conc./MIC 1/4)): 2 µg/mL
- Peptide MIC during treatment with vancomycin (MDRAB 12035 [5]; vancomycin […] (Conc./MIC 1/8)): 2 µg/mL
